These molecules were tested on Silicibacter sp. strain TM1040 (assay: Chemotaxis plate screening assay (change in motile colony morphology)). Details: BM glycerol motility agar.
Assay type: cell-based
Experimental: Following 36 h of incubation, a putative attractant was placed approximately 5 cm from the site of inoculation (or 2.5 cm in front of the periphery of motile cells). Possible chemoattractant compounds were administered as either a sterile solid or concentrated stock solutions. The cells were further incubated for 16 h to allow for additional outward movement, at which time measurement of diameter, shape, and chemotaxis rings internal to the motile colony were made.
[…] Bacteria inoculated into the center of the agar consume nutrients and create a concentration gradient that increases outward from the point of inoculation. The bacteria sense the increasing gradient and swim outwards, seeking higher concentrations of nutrients, which is manifested as a symmetrical “motile” colony. If an attractant is placed at a short distance in front of the advancing motile colony, it forms a second gradient moving towards the oncoming cells that will affect the symmetry of the colony by reducing the net outward swimming of the bacteria.
Wherever Change in morphology with carbon source Alanine is given: key: −: minus indicates no change compared to distilled water or no attractant controls; +: either one or two pluses indicates moderate to strong alteration in motile colony phenotype (respectively); ++: either one or two pluses indicates moderate to strong alteration in motile colony phenotype (respectively).
Wherever Change in morphology with carbon source Glucose is given: key: −: minus indicates no change compared to distilled water or no attractant controls; +: either one or two pluses indicates moderate to strong alteration in motile colony phenotype (respectively); ++: either one or two pluses indicates moderate to strong alteration in motile colony phenotype (respectively).
Wherever Change in morphology with carbon source Glycerol is given: key: −: minus indicates no change compared to distilled water or no attractant controls; +: either one or two pluses indicates moderate to strong alteration in motile colony phenotype (respectively); ++: either one or two pluses indicates moderate to strong alteration in motile colony phenotype (respectively).
Wherever Response: change in motile colony morphology of TM1040 in response to attractants, compared to the control is given: key: −: minus indicates no change compared to distilled water or no attractant controls; +: either one or two pluses indicates moderate to strong alteration in motile colony phenotype (respectively); ++: either one or two pluses indicates moderate to strong alteration in motile colony phenotype (respectively).

| SMILES | Response: change in motile colony morphology of TM1040 in response to attractants, compared to the control | chemotactic response of TM1040 in plate assay |
| --- | --- | --- |
| C[C@H](N)C(=O)O [Alanine] | ++ |  |
| O=C(O)CCC(=O)C(=O)O [Alpha-ketoglutarate] | − | no response |
| O=C(O)CC(O)(CC(=O)O)C(=O)O [Citrate] | ++ | strong positive response |
| C[S+](C)[O-] [DMSO, dimethyl sulfoxide] | − |  |
| O=C[C@H](O)[C@@H](O)[C@@H](O)[C@H](O)CO [Galactose] | ++ | responded positively |
| NCC(=O)O [Glycine] | + |  |
| OC[C@H]1O[C@@H](O[C@H]2[C@H](O)[C@@H](O)C(O)O[C@@H]2CO)[C@H](O)[C@@H](O)[C@H]1O (some centres unmarked) [Lactose] | − |  |
| O=C(O)CCS [MPA, 3-mercaptopropionate] | + | only weakly |
| CC(=O)N[C@H]1C(O)O[C@H](CO)[C@@H](O)[C@@H]1O (some centres unmarked) [N-acetylglucosamine] | ++ | responded positively |
| O=C(O)CCC(=O)O [Succinate] | + | mild response |
| C=CC(=O)O [acrylate] | ++ | responded strongly |
| O=C[C@@H](O)[C@H](O)[C@H](O)CO [arabinose] | − | no detectable change in the appearance of the motile colony |
| N=C(N)NCCC[C@H](N)C(=O)O [arginine] | ++ |  |
| NC(=O)C[C@H](N)C(=O)O [asparagine] | ++ |  |
| N[C@@H](CC(=O)O)C(=O)O [aspartic acid] | ++ |  |
| N[C@@H](CS)C(=O)O [cysteine] | + |  |
| O=C(CO)[C@@H](O)[C@H](O)[C@H](O)CO [fructose] | − | no detectable change in the appearance of the motile colony |
| C[C@H](O)[C@@H](O)[C@@H](O)[C@H](O)C=O [fucose] | − |  |

| SMILES | Response: change in motile colony morphology of TM1040 in response to attractants, compared to the control | chemotactic response of TM1040 in plate assay |
| --- | --- | --- |
| O=C(O)/C=C/C(=O)O [fumurate] | ++ | strong positive response |
| N[C@@H](CCC(=O)O)C(=O)O [glutamic acid] | ++ |  |
| OCC(O)CO [glycerol] | + |  |
| N[C@@H](Cc1c[nH]cn1)C(=O)O [histidine] | + |  |
| CC[C@H](C)[C@H](N)C(=O)O [isoleucine] | + |  |
| CC(C)C[C@H](N)C(=O)O [leucine] | + |  |
| NCCCC[C@H](N)C(=O)O [lysine] | + |  |
| OC[C@H]1O[C@H](O[C@H]2[C@H](O)[C@@H](O)[C@H](O)O[C@@H]2CO)[C@H](O)[C@@H](O)[C@@H]1O [maltose] | + | responded positively |
| N[C@@H](Cc1ccccc1)C(=O)O [phenylalanine] | ++ |  |
| O=C(O)[C@@H]1CCCN1 [proline] | ++ |  |
| O=C[C@H](O)[C@H](O)[C@H](O)CO [ribose] | − |  |
| N[C@@H](CO)C(=O)O [serine] | + |  |
| OC[C@H]1O[C@@](CO)(O[C@H]2O[C@H](CO)[C@@H](O)[C@H](O)[C@H]2O)[C@@H](O)[C@@H]1O [sucrose] | ++ | responded positively |
| C[C@@H](O)[C@H](N)C(=O)O [threonine] | ++ |  |
| N[C@@H](Cc1c[nH]c2ccccc12)C(=O)O [tryptophan] | + |  |
| N[C@@H](Cc1ccc(O)cc1)C(=O)O [tyrosine] | + |  |
| O=C[C@H](O)[C@@H](O)[C@H](O)CO [xylose] | − |  |

Same assay, conditions: BM motility agar, alanine as single carbon source

| SMILES | Change in morphology with carbon source Alanine |
| --- | --- |
| C[C@H](N)C(=O)O [Alanine] | − |
| O=C(O)CCC(=O)C(=O)O [Alpha-ketoglutarate] | − |
| C[S+](C)[O-] [DMSO, dimethyl sulfoxide] | − |
| O=C[C@H](O)[C@@H](O)[C@@H](O)[C@H](O)CO [Galactose] | − |
| OC[C@H]1O[C@@H](O[C@H]2[C@H](O)[C@@H](O)C(O)O[C@@H]2CO)[C@H](O)[C@@H](O)[C@H]1O (some centres unmarked) [Lactose] | − |
| CC(=O)N[C@H]1C(O)O[C@H](CO)[C@@H](O)[C@@H]1O (some centres unmarked) [N-acetylglucosamine] | + |
| O=C(O)CCC(=O)O [Succinate] | ++ |
| C=CC(=O)O [acrylate] | + |
| N[C@@H](CCC(=O)O)C(=O)O [glutamic acid] | − |
| NCCCC[C@H](N)C(=O)O [lysine] | − |
| OC[C@H]1O[C@H](O[C@H]2[C@H](O)[C@@H](O)[C@H](O)O[C@@H]2CO)[C@H](O)[C@@H](O)[C@@H]1O [maltose] | ++ |

Same assay, conditions: BM motility agar, glucose as single carbon source

| SMILES | Change in morphology with carbon source Glucose |
| --- | --- |
| C[C@H](N)C(=O)O [Alanine] | − |
| O=C(O)CCC(=O)C(=O)O [Alpha-ketoglutarate] | − |
| C[S+](C)[O-] [DMSO, dimethyl sulfoxide] | − |
| O=C[C@H](O)[C@@H](O)[C@@H](O)[C@H](O)CO [Galactose] | − |
| OC[C@H]1O[C@@H](O[C@H]2[C@H](O)[C@@H](O)C(O)O[C@@H]2CO)[C@H](O)[C@@H](O)[C@H]1O (some centres unmarked) [Lactose] | − |
| CC(=O)N[C@H]1C(O)O[C@H](CO)[C@@H](O)[C@@H]1O (some centres unmarked) [N-acetylglucosamine] | − |
| O=C(O)CCC(=O)O [Succinate] | + |
| C=CC(=O)O [acrylate] | + |
| N[C@@H](CCC(=O)O)C(=O)O [glutamic acid] | − |
| NCCCC[C@H](N)C(=O)O [lysine] | − |
| OC[C@H]1O[C@H](O[C@H]2[C@H](O)[C@@H](O)[C@H](O)O[C@@H]2CO)[C@H](O)[C@@H](O)[C@@H]1O [maltose] | − |

Same assay, conditions: BM motility agar, glycerol as single carbon source

| SMILES | Change in morphology with carbon source Glycerol |
| --- | --- |
| C[C@H](N)C(=O)O [Alanine] | ++ |
| O=C(O)CCC(=O)C(=O)O [Alpha-ketoglutarate] | − |
| C[S+](C)[O-] [DMSO, dimethyl sulfoxide] | − |
| O=C[C@H](O)[C@@H](O)[C@@H](O)[C@H](O)CO [Galactose] | ++ |
| OC[C@H]1O[C@@H](O[C@H]2[C@H](O)[C@@H](O)C(O)O[C@@H]2CO)[C@H](O)[C@@H](O)[C@H]1O (some centres unmarked) [Lactose] | − |
| CC(=O)N[C@H]1C(O)O[C@H](CO)[C@@H](O)[C@@H]1O (some centres unmarked) [N-acetylglucosamine] | ++ |
| O=C(O)CCC(=O)O [Succinate] | + |
| C=CC(=O)O [acrylate] | ++ |
| N[C@@H](CCC(=O)O)C(=O)O [glutamic acid] | ++ |
| NCCCC[C@H](N)C(=O)O [lysine] | + |
| OC[C@H]1O[C@H](O[C@H]2[C@H](O)[C@@H](O)[C@H](O)O[C@@H]2CO)[C@H](O)[C@@H](O)[C@@H]1O [maltose] | + |

Same assay, conditions: BM motility agar, succinate as single carbon source

| SMILES | Change in morphology with carbon source Succinate |
| --- | --- |
| C[C@H](N)C(=O)O [Alanine] | + |
| O=C(O)CCC(=O)C(=O)O [Alpha-ketoglutarate] | + |
| C[S+](C)[O-] [DMSO, dimethyl sulfoxide] | − |
| O=C[C@H](O)[C@@H](O)[C@@H](O)[C@H](O)CO [Galactose] | + |
| OC[C@H]1O[C@@H](O[C@H]2[C@H](O)[C@@H](O)C(O)O[C@@H]2CO)[C@H](O)[C@@H](O)[C@H]1O (some centres unmarked) [Lactose] | − |
| CC(=O)N[C@H]1C(O)O[C@H](CO)[C@@H](O)[C@@H]1O (some centres unmarked) [N-acetylglucosamine] | + |
| O=C(O)CCC(=O)O [Succinate] | − |
| C=CC(=O)O [acrylate] | ++ |
| N[C@@H](CCC(=O)O)C(=O)O [glutamic acid] | + |
| NCCCC[C@H](N)C(=O)O [lysine] | − |
| OC[C@H]1O[C@H](O[C@H]2[C@H](O)[C@@H](O)[C@H](O)O[C@@H]2CO)[C@H](O)[C@@H](O)[C@@H]1O [maltose] | ++ |

Same assay, conditions: glucose background (BM glucose)

| SMILES | chemotactic response of TM1040 in plate assay |
| --- | --- |
| O=C(O)CCC(=O)O [Succinate] | moderate response |
| C=CC(=O)O [acrylate] | moderate response |

Each molecule was assayed on Silicibacter sp. strain TM1040 (assay: Quantitative capillary chemotaxis assay). Details: pure compounds, FIG. 12; capillaries filled with 2 μM or 200 μM attractant.
Assay type: cell-based
From the text: The cells were pelleted by centrifugation at 4,000×g in a tabletop centrifuge (Centra-CL2; International Equipment Company), the supernatant was discarded, and the pellet was resuspended in chemotaxis buffer (CB) (15 g of ASW, 6 g of Tris-HCl per liter [pH 7.6]) to the same OD. Five hundred microliters of washed cells was placed in one of the wells of the Palleroni chamber, followed by a 1-μl capillary (Microcaps; Drummond) filled with a putative attractant diluted in CB. This process was repeated for each of the four wells in the chamber. A capillary filled with CB only was included in each experiment as a negative control. Depending on the experiment, capillaries remained in the chambers for 0.5 to 2 h, after which time they were removed, and the contents of each capillary were serially diluted in CB. Final dilutions were then spread on HIASW agar plates and incubated for 16 h at 30° C. The concentration of TM1040 in each capillary was derived by counting the CFU on each plate and multiplying by the appropriate dilution factor. […]

| SMILES | response factor (mean) |
| --- | --- |
| O=C(O)CCC(=O)C(=O)O [Alpha-ketoglutarate] | none were found to be significant chemoattractants |
| O=C(O)CC(O)(CC(=O)O)C(=O)O [Citrate] | none were found to be significant chemoattractants |
| NCC(=O)O [Glycine] | ca. 3.5 |
| O=C(O)CCC(=O)O [Succinate] | none were found to be significant chemoattractants |
| NCCCC[C@H](N)C(=O)O [lysine] | ca. 3.5 |

— US20090142429A1, “SILICIBACTER SP. STRAIN USEFUL FOR GENETIC TRANSFORMATION OF MARINE ALGAE AND PRODUCTION OF ANTIBIOTIC AGENTS” (UNIVERSITY OF MARYLAND BIOTECHNOLOGY INSTITUTE, priority 2005, published 2009)
